Activity calls are given as the source filed them.
How the values were obtained:
HEK293 [1] = experiment: cells; settings: Homo sapiens
HEK293 [2] = experiment: cells; settings: Homo sapiens; remark: listed apart in the source
[3] = Luminescence Cell-Based Dose Response HTS to Identify Activators of Luciferase Translation or Activity in H4 […] Cells. [Related pubchem assays: 1829 (Project Summary), 1814 (Primary HTS)]; format: functional
HeLa = experiment: HeLa cell cytotoxicity, dose response, cytotoxicity control for MITF activator project, CellTiter-Glo luminescence, cherry-pick samples (AID 540259); format: functional, cell-based; settings: Homo sapiens
H4 = experiment: Luminescence Cell-Based Dose Response HTS to Identify Activators of 5'UTR Stem-Loop Driven Prion Protein mRNA Translation in H4 Neuroglioblastoma Cells. [Related pubchem assays: 1829 (Project Summary), 1814 (Primary HTS)]; format: functional; settings: Homo sapiens
[4] = target: T1, RNA-binding protein pos-1 (Caenorhabditis elegans, UniProt G5EF15); experiment: inhibitors of POS-1/mex-3 RNA binding, dose response, biochemical, fluorescence polarization (AID 1964);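 also: purified POS-1 fused to maltose binding protein made in E. coli; potency of compounds blocking POS-1 binding to fluorescent RNA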
T1 sequence (G5EF15 whole entry): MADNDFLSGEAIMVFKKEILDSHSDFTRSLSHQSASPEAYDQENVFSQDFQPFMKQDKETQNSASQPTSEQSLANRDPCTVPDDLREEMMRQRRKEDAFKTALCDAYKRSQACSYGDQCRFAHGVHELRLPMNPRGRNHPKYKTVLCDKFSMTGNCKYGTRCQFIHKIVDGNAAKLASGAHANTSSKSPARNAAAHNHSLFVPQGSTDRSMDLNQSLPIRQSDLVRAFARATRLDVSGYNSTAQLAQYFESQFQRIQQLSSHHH

[5] = target: T2, Zinc finger protein mex-5 (Caenorhabditis elegans, UniProt Q9XUB2); experiment: MEX-5/TCR-2 RNA interaction inhibitors, dose response, biochemical, C. elegans, fluorescence polarization (AID 1960)
T2 sequence (Q9XUB2 whole entry): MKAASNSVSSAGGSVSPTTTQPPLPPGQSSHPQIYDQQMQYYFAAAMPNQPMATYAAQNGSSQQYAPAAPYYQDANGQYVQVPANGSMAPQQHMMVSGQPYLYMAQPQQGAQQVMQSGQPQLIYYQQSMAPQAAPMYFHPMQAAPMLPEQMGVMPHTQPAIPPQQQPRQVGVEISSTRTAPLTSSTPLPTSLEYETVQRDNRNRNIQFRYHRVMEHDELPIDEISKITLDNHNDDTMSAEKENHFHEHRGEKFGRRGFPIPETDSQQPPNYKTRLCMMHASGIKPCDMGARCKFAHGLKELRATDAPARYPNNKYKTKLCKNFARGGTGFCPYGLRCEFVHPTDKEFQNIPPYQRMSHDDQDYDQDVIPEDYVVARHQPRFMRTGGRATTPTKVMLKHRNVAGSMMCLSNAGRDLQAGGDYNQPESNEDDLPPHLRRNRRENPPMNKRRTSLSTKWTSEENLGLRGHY

[6] = target: T3, Lysine-specific demethylase 4C (Homo sapiens, UniProt Q9H3R0); experiment: GASC-1 (JMJD2C) histone demethylase inhibitors, dose response, biochemical, DELFIA europium, cherry-picked samples (AID 488835); format: functional
T3 sequence (Q9H3R0 whole entry): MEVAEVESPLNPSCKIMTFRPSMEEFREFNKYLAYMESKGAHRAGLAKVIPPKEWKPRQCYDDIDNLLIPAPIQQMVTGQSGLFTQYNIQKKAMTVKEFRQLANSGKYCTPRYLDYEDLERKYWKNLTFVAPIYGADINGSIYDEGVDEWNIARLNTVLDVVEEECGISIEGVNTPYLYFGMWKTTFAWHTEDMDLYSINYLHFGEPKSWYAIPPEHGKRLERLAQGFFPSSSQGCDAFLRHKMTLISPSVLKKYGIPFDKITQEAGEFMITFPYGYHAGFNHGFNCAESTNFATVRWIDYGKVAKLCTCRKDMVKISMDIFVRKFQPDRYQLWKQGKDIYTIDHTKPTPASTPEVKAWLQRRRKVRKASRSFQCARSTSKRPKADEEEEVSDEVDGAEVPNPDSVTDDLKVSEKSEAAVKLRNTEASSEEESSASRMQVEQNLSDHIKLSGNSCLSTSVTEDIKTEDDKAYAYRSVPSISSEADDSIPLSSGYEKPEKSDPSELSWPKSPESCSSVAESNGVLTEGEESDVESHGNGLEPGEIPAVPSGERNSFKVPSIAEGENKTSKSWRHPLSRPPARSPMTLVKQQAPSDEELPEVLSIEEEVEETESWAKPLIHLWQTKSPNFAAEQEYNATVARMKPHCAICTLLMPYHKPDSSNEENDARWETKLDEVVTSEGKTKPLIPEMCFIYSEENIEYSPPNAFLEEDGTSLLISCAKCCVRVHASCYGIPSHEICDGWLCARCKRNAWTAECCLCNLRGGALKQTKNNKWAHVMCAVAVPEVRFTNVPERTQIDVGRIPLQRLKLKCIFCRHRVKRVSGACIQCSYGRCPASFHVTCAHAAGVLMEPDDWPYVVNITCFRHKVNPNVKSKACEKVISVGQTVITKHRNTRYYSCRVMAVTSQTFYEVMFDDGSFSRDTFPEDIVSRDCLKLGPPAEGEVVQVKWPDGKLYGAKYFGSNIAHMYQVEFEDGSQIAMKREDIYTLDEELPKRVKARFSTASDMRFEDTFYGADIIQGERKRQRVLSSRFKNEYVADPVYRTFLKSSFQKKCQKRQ

[7] = target: Lysine-specific demethylase 4A (Homo sapiens, UniProt O75164); experiment: JMJD2A histone demethylase inhibitors, dose response, selectivity assay for GASC-1 inhibitor project, biochemical, DELFIA europium, cherry-picked samples (AID 488840)
Sequence of Lysine-specific demethylase 4A (O75164 whole entry): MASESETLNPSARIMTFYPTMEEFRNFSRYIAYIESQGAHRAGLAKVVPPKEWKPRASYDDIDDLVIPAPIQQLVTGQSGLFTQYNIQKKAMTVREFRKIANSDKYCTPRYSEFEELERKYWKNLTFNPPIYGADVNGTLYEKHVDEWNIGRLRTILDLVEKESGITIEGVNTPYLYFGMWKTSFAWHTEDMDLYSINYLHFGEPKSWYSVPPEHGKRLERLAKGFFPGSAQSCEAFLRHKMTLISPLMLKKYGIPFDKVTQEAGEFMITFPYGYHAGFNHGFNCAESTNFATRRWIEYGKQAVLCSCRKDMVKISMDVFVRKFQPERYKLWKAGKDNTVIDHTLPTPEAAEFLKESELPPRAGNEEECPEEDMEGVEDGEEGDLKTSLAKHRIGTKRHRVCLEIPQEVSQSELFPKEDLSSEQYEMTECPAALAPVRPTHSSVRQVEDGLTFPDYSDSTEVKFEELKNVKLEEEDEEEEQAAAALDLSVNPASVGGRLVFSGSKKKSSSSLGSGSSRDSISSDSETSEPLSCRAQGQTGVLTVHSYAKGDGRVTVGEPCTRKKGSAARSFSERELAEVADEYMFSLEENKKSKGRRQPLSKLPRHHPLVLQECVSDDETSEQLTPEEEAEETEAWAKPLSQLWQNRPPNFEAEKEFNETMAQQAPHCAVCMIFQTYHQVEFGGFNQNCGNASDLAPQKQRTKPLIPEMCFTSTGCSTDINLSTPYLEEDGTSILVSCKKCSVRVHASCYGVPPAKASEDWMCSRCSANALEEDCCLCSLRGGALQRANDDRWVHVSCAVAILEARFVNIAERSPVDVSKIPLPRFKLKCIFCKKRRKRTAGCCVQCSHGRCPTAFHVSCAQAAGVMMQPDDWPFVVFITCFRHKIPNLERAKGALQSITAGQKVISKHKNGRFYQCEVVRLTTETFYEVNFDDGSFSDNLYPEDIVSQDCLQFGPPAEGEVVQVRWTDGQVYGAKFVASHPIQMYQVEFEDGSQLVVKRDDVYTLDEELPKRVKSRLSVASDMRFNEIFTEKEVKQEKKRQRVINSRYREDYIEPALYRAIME

Cytochrome P450 2D6 = Cytochrome P450 2D6 (Homo sapiens, UniProt P10635);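 also: CYP2D6 member of a cytochrome P450 panel assay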
Sequence of Cytochrome P450 2D6 (P10635 whole entry): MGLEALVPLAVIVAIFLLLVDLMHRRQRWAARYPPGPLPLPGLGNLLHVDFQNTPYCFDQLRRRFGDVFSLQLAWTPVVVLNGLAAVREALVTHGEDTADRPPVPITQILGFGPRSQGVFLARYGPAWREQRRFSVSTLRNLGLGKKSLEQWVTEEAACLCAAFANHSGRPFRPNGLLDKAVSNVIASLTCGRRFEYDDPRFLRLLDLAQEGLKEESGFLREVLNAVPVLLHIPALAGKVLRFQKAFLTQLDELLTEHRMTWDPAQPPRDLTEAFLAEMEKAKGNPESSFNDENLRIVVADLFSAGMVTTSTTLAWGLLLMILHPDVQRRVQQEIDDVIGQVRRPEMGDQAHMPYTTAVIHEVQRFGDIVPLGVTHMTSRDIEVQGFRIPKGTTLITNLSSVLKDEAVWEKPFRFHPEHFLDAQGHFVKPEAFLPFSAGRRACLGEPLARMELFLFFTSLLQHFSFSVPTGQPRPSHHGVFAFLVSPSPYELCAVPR

With `C=CCn1c(C)cc(C(=O)CN2NS(=O)(=O)c3ccccc3C2=O)c1C` the EC50 (HEK293 [1]) was > 2.21 µM (active) and the EC50 (HEK293 [2]) was > 59.6 µM (inactive).

In the case of `Cc1ccc(Sc2cnc3ccccc3n2)cc1`, the EC50 [3] is reported as 3.64 µM (active), the AC50 (HeLa) is reported as 44.3 µM (active) and the EC50 (H4) is reported as 10.1 µM (active).

For `Cn1c(=O)c2[nH]c(N=NNc3ccccc3F)nc2n(C)c1=O`, the EC50 [4] was 62 µM (active), the EC50 [5] was 21.7 µM (active) and the AC50 [6] was 8.83 µM (active). The AC50 [7] was 17.3 µM (active).

With `O=C1OC(=O)[C@@H]2[C@@H]1[C@@H]1CC[C@H]2O1` the AC50 (Cytochrome P450 2D6) was “inconclusive”.

With `O=C(CNC(=O)c1cccs1)c1ccc(Br)cc1` the AC50 (HeLa) was 59.4 µM (active).
